Experiments:
DYRK1A kinase = DYRK1A kinase (Homo sapiens, UniProt Q13627); assay: DYRK1A kinase activity (Ser/Thr 18 peptide Z-lyte FRET assay); assay type: biochemical; conditions: recombinant DYRK1A, 30 μM ATP, one hour at room temperature;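 also: kinase activity read as coumarin/fluorescein emission ratio after development step, with unphosphorylated and phosphorylated peptide forms setting 0% and 100% controls, values from dose-response curves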
GSK3β kinase = GSK3β kinase (Homo sapiens, UniProt P49841); assay: GSK3β kinase activity (Ser/Thr 09 peptide Z-lyte FRET assay); assay type: biochemical; conditions: recombinant kinase, 46 μM ATP, one hour at room temperature; read-out: EC50
[1] = tested on: SW480 colon carcinoma cells; assay: Cell viability assay (CellTiter-Glo); conditions: Homo sapiens; for EC50: SW480, 96 h; for inhibition at 10 µM: SW480, read-out: percent inhibition at 10 μM
[2] = tested on: Wnt-responsive Sp5-Luc reporter in SW480 colon carcinoma cells; assay: Screening assay for Wnt activity (Sp5-Luc reporter gene assay); conditions: Homo sapiens; for EC50: SW480; for inhibition at 10 µM: SW480, read-out: percent inhibition at 10 μM
IL-6 = IL-6 inhibition in LPS-stimulated human peripheral blood mononuclear cells (HTRF); conditions: Homo sapiens, PBMC; for EC50: 22 h; for inhibition at 10 µM: read-out: percentage in parentheses after EC50 >10
[3] = tested on: α-smooth muscle actin (aSMA) positive LL29 cells; assay: Inhibition of the fibrotic process: αSMA staining in TGF-β1 treated LL29 fibroblasts from IPF patients; conditions: Homo sapiens, Fibroblast; for EC50: 96 h; for inhibition at 10 µM: read-out: percentage in parentheses after EC50 >10

Sequence of GSK3β kinase (P49841 whole entry): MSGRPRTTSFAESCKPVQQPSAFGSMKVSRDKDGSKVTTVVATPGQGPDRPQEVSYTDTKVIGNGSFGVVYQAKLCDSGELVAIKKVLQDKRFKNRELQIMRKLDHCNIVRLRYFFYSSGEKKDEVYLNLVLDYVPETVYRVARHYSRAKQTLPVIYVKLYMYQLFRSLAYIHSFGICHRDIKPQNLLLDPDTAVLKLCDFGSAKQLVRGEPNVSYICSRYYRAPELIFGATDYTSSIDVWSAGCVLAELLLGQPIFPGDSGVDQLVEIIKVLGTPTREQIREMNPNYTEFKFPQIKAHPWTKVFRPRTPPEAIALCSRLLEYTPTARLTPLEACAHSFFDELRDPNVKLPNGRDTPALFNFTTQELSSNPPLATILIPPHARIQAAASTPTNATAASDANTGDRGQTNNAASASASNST

Row | EC50 (DYRK1A kinase) [µM] | EC50 (GSK3β kinase) [µM] | EC50 [1] [µM] | EC50 [2] [µM] | EC50 (IL-6) [µM] | Structure (SMILES) | inhibition at 10 µM (IL-6) [%] | EC50 [3] [µM] | inhibition at 10 µM [1] [%] | inhibition at 10 µM [2] [%] | inhibition at 10 µM [3] [%]
1 | 3.2 | 0.127 | > 10 | > 10 | > 10 | CC(F)(F)CN1CCC(C(=O)Nc2cc3cc(-c4cnco4)ncc3cn2)CC1 [Compound 4167, 1-(2,2-Difluoropropyl)-N-(6-(oxazol-5-yl)-2,7-naphthyridin-3-yl)piperidine-4-carboxamide] | 4.9 | > 10 | 11.9 | 8.9 | 43
2 | 0.253 | > 10 | 5.4 | > 10 | > 10 | Cc1nnc(-c2cc3cc(NC(=O)c4ccnc(N5CCN(C)CC5)c4)ncc3cn2)s1 [Compound 4377, N-(6-(5-Methyl-1,3,4-thiadiazol-2-yl)-2,7-naphthyridin-3-yl)-2-(4-methylpiperazin-1-yl)isonicotinamide] | 5.7 | 2.96 | – | 28.6 | –
3 | 0.002 | > 10 | 2.03 | 2 | > 10 | CN1CCN(c2cc(C(=O)Nc3cc4cc(-c5cncc(N)c5)ncc4cn3)ccn2)CC1 [Compound 4432, N-(6-(5-Aminopyridin-3-yl)-2,7-naphthyridin-3-yl)-2-(4-methylpiperazin-1-yl)isonicotinamide] | 1.4 | 1.72 | – | – | –
4 | 0.035 | 0.543 | > 10 | > 10 | > 10 | Cn1cc(-c2ccc3cnc(NC(=O)[C@H]4CC[C@H](NC(=O)OC(C)(C)C)CC4)cc3n2)cn1 [Compound 4537, tert-Butyl (trans-4-((2-(1-methyl-1H-pyrazol-4-yl)-1,6-naphthyridin-7-yl)carbamoyl)cyclohexyl)carbamate] | 3 | 5.27 | 4.7 | 25.3 | –
5 | 1.03 | > 10 | > 10 | > 10 | > 10 | CN1CC(COc2cncc(-c3ccc4cnc(NC(=O)c5ccc(F)cc5)cc4n3)n2)C1 [Compound 4564, 4-fluoro-N-(2-(6-((1-methylazetidin-3-yl)methoxy)pyrazin-2-yl)-1,6-naphthyridin-7-yl)benzamide] | 0 | > 10 | 21.1 | 33.3 | 26.8
6 | 1.41 | 0.665 | > 10 | 3.87 | > 10 | Cn1nnnc1-c1ccc2cnc(NC(=O)C3CCN(CCC(F)(F)F)CC3)nc2c1 [Compound 4574, N-(7-(1-Methyl-1H-tetrazol-5-yl)quinazolin-2-yl)-1-(3,3,3-trifluoropropyl) piperidine-4-carboxamide] | 5.7 | > 10 | 20.2 | – | 32.8
7 | 0.675 | 0.346 | > 10 | > 10 | > 10 | Cc1ncc(-c2ccc3cnc(NC(=O)C(C)N4CCCCC4)nc3c2)n1C (stereo not drawn) [Compound 4576, N-(7-(1,2-Dimethyl-1H-imidazol-5-yl)quinazolin-2-yl)-2-(piperidin-1-yl) propanamide] | 0 | > 10 | 22.1 | 35.3 | 38.3

More lines, now with the values behind:

Row | Structure (SMILES) | EC50 (DYRK1A kinase) [µM] | EC50 (GSK3β kinase) [µM] | EC50 [1] [µM] | EC50 [2] [µM] | EC50 (IL-6) [µM] | inhibition at 10 µM (IL-6) [%] | EC50 [3] [µM] | inhibition at 10 µM [1] [%] | inhibition at 10 µM [2] [%] | inhibition at 10 µM [3] [%]
8 | Cc1nnc(-c2cnc3cnc(NC(=O)c4ccnc(N5CCN(C)CC5)c4)cc3c2)s1 [Compound 3470, N-(3-(5-Methyl-1,3,4-thiadiazol-2-yl)-1,7-naphthyridin-6-yl)-2-(4-methylpiperazin-1-yl)isonicotinamide] | 0.11 | > 10 | 3.96 | 5.48 | > 10 | 9.4 | 3.23 | – | – | –
9 | Cc1nnc(-c2cnc3cnc(NC(=O)c4ccnc(SC5CCN(C)CC5)c4)cc3c2)s1 [Compound 3474, N-(3-(5-Methyl-1,3,4-thiadiazol-2-yl)-1,7-naphthyridin-6-yl)-2-((1-methylpiperidin-4-yl)thio)isonicotinamide] | 0.071 | > 10 | > 10 | > 10 | > 10 | 3.9 | > 10 | 17.1 | 1.9 | 37
10 | CN1CCN(c2cc(C(=O)Nc3cc4cc(-c5ccc(N)nc5)cnc4cn3)ccn2)CC1 [Compound 3527, N-(3-(6-Aminopyridin-3-yl)-1,7-naphthyridin-6-yl)-2-(4-methylpiperazin-1-yl)isonicotinamide] | 0.294 | > 10 | > 10 | > 10 | > 10 | 0 | 3.5 | 41.8 | 42.5 | –
11 | O=C(Nc1cc2cc(-c3cncc(OCC4CNC4)n3)cnc2cn1)c1ccc(F)cc1 [Compound 3612, N-(3-(6-(Azetidin-3-ylmethoxy)pyrazin-2-yl)-1,7-naphthyridin-6-yl)-4-fluorobenzamide] | 0.487 | > 10 | 2.83 | 3.92 | 5.05 | – | 3.9 | – | – | –
12 | Cn1cc(-c2cc3cc(NC(=O)C(C)(C)F)ncc3cn2)nn1 [Compound 3960, 2-Fluoro-2-methyl-N-(6-(1-methyl-1H-1,2,3-triazol-4-yl)-2,7-naphthyridin-3-yl)propanamide] | 1.01 | 1.5 | > 10 | > 10 | > 10 | 7 | > 10 | 38.5 | 44.8 | 23.5
13 | Cn1cc(-c2cc3cc(NC(=O)C4CCN(CC5(C(F)(F)F)CC5)CC4)ncc3cn2)nn1 [Compound 3974, N-(6-(1-Methyl-1H-1,2,3-triazol-4-yl)-2,7-naphthyridin-3-yl)-1-((1-(trifluoromethyl)cyclopropyl)methyl)piperidine-4-carboxamide] | 0.184 | 0.305 | 4.92 | 0.76 | > 10 | 6.4 | 2.02 | – | – | –
14 | COC1CCN(CC(=O)Nc2cc3cc(-c4cn(C)nn4)ncc3cn2)CC1 [Compound 3985, 2-(4-Methoxypiperidin-1-yl)-N-(6-(1-methyl-1H-1,2,3-triazol-4-yl)-2,7-naphthyridin-3-yl)acetamide] | 0.751 | 1.24 | > 10 | > 10 | > 10 | 5.2 | 8.38 | 34.9 | 49.8 | –
15 | CNC(=O)c1ccc(C(=O)Nc2cc3cc(-c4cn(C)nn4)ncc3cn2)cn1 [Compound 3999, N^2-Methyl-N^5-(6-(1-methyl-1H-1,2,3-triazol-4-yl)-2,7-naphthyridin-3-yl) pyridine-2,5-dicarboxamide] | 0.454 | > 10 | > 10 | > 10 | > 10 | 4.1 | > 10 | 27.3 | 22 | 34.6
16 | CN(C)C1CCN(c2cc(C(=O)Nc3cc4cc(-c5cn(C)nn5)ncc4cn3)ccn2)CC1 [Compound 4003, 2-(4-(Dimethylamino)piperidin-1-yl)-N-(6-(1-methyl-1H-1,2,3-triazol-4-yl)-2,7-naphthyridin-3-yl)isonicotinamide] | 0.056 | 1.72 | > 10 | > 10 | > 10 | 3.7 | > 10 | 50.4 | 34 | 24.6
17 | CN1CCCN(c2cc(C(=O)Nc3cc4cc(-c5cn(C)nn5)ncc4cn3)ccn2)CC1 [Compound 4006, 2-(4-Methyl-1,4-diazepan-1-yl)-N-(6-(1-methyl-1H-1,2,3-triazol-4-yl)-2,7-naphthyridin-3-yl)isonicotinamide] | 0.056 | 1.47 | 7.87 | > 10 | > 10 | 8.9 | > 10 | – | 37.7 | 5.2
18 | CC(C)Oc1ccc(C(=O)Nc2cc3cc(-c4cnc5n4CCNC5)ncc3cn2)cc1 [Compound 4150, 4-Isopropoxy-N-(6-(5,6,7,8-tetrahydroimidazo[1,2-a]pyrazin-3-yl)-2,7-naphthyridin-3-yl)benzamide] | 0.053 | 5.14 | > 10 | 2.85 | > 10 | 4.6 | 3.57 | 32.7 | – | –
19 | Cc1nnc(-c2cc3cc(NC(=O)CN4C5CCC4CC5)ncc3cn2)s1 [Compound 4353, 2-(7-Azabicyclo[2.2.1]heptan-7-yl)-N-(6-(5-methyl-1,3,4-thiadiazol-2-yl)-2,7-naphthyridin-3-yl)acetamide] | 0.529 | 2.45 | > 10 | > 10 | > 10 | 8.5 | > 10 | 4.1 | 2.1 | 26.4

Reference: patent US10703748B2, “Diazanaphthalen-3-yl carboxamides and preparation and use thereof” (Samumed, LLC, priority 2017, dated 2020)
